The text below walks through data of PubChem BioAssay (NCI).

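Cultured in 96-well plates, cells were exposed to test compound for 48 hours across five concentrations. Here, GI50 denotes the concentration required for 50% inhibition of growth. The concentration for full growth arrest is given as TGI.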

Some test systems named below: SK-MEL-5 melanoma; SN12C renal; SW-620 colon; ACHN renal; MOLT-4 leukemia; CCRF-CEM leukemia; UACC-257 melanoma; LOX IMVI melanoma; IGROV1 ovarian; HL-60(TB) leukemia.
Holding throughout (assay): NCI-60 cell line screen, 48 h

As for `CC12CCCC(CC(=O)c3[nH]c4ccccc4c31)C2` (centres undefined), the GI50 in the experiment with SK-MEL-5 melanoma was 0.669 µM; in the experiment on SN12C renal, 1.91 µM; with SW-620 colon it was 0.426 µM; in the experiment with ACHN renal it was 0.856 µM; in the experiment with MOLT-4 leukemia, 0.492 µM; with CCRF-CEM leukemia it was 0.459 µM. Further, the GI50 in the experiment with UACC-257 melanoma was 15.2 µM; in the experiment on LOX IMVI melanoma it was 0.615 µM; in the experiment with IGROV1 ovarian it was 0.793 µM; in the experiment on HL-60(TB) leukemia, 0.34 µM. The TGI was 15 µM in the experiment with SK-MEL-5 melanoma; 20.3 µM in the experiment on SN12C renal; over 100 µM in the experiment with SW-620 colon; over 100 µM with ACHN renal; 40.9 µM in the experiment with MOLT-4 leukemia; over 100 µM in the experiment with CCRF-CEM leukemia. In addition, the TGI in the experiment on UACC-257 melanoma is over 100 µM; in the experiment with LOX IMVI melanoma it was 20.9 µM; in the experiment with IGROV1 ovarian it was over 100 µM; with HL-60(TB) leukemia it was 3.94 µM.
Turning to `O=C(NC1CCCCCC1)C1C(=O)N(C2CCCCCC2)C(=O)/C1=N\O` (centres undefined), the TGI is over 100 µM with SK-MEL-5 melanoma; over 100 µM in the experiment on SN12C renal; over 100 µM in the experiment with SW-620 colon; over 100 µM with ACHN renal; 57.3 µM in the experiment on MOLT-4 leukemia; 87.2 µM in the experiment on CCRF-CEM leukemia. Moreover, the TGI was over 100 µM with UACC-257 melanoma, over 100 µM in the experiment with LOX IMVI melanoma, over 100 µM in the experiment with IGROV1 ovarian and 47.8 µM with HL-60(TB) leukemia.
Consider `CC(=O)SCCC1c2[nH]c3ccccc3c2CCN1O` (centres undefined), for which the TGI with SK-MEL-5 melanoma, in the experiment on SN12C renal, in the experiment with SW-620 colon, in the experiment with ACHN renal, in the experiment on MOLT-4 leukemia and with CCRF-CEM leukemia was over 100 µM each time. Further, the TGI in the experiment with UACC-257 melanoma, with LOX IMVI melanoma, with IGROV1 ovarian and with HL-60(TB) leukemia was over 100 µM in each case.
For `C[C@]12CC[C@@H]3c4ccc(O)cc4C[C@@H](CCCCCCCCCS(=O)CCCC(F)(F)C(F)(F)F)[C@H]3[C@@H]1CC[C@@H]2O` (some centres undefined), the GI50 in the experiment with SK-MEL-5 melanoma, in the experiment on SN12C renal, in the experiment with SW-620 colon, with ACHN renal, in the experiment with MOLT-4 leukemia and with CCRF-CEM leukemia was over 100 µM throughout. Moreover, the GI50 with UACC-257 melanoma is over 100 µM; in the experiment on LOX IMVI melanoma, over 100 µM; in the experiment with IGROV1 ovarian, over 100 µM; with HL-60(TB) leukemia, 6.53 µM. The TGI in the experiment with SK-MEL-5 melanoma, with SN12C renal, with SW-620 colon, in the experiment on ACHN renal, in the experiment on MOLT-4 leukemia and in the experiment on CCRF-CEM leukemia was over 100 µM in each case. The TGI in the experiment with UACC-257 melanoma, with LOX IMVI melanoma, with IGROV1 ovarian and with HL-60(TB) leukemia was over 100 µM throughout.
`COC(=O)CSc1n[nH]c(-c2ccc(O)c([N+](=O)[O-])c2)n1`: the TGI in the experiment on SK-MEL-5 melanoma, in the experiment with SN12C renal, with SW-620 colon, in the experiment with ACHN renal, in the experiment on MOLT-4 leukemia and in the experiment with CCRF-CEM leukemia was over 100 µM throughout. Besides, the TGI with UACC-257 melanoma, in the experiment on LOX IMVI melanoma, in the experiment with IGROV1 ovarian and in the experiment with HL-60(TB) leukemia was over 100 µM throughout.
On to `COc1cc([N+](=O)[O-])ccc1NC(=O)C(F)(F)F`, for which the TGI in the experiment on SK-MEL-5 melanoma, in the experiment with SN12C renal, in the experiment with SW-620 colon, in the experiment on ACHN renal, with MOLT-4 leukemia and with CCRF-CEM leukemia was over 100 µM in each case. In addition, the TGI in the experiment on UACC-257 melanoma, in the experiment with LOX IMVI melanoma, in the experiment on IGROV1 ovarian and in the experiment with HL-60(TB) leukemia was over 100 µM in each case.
On to `COc1ccc(C(=O)O)c(Cc2cccc3ccccc23)c1`, for which the TGI with SK-MEL-5 melanoma, in the experiment with SN12C renal, with SW-620 colon, in the experiment on ACHN renal, in the experiment with MOLT-4 leukemia and with CCRF-CEM leukemia was over 100 µM throughout. For the same compound, the TGI in the experiment on UACC-257 melanoma, in the experiment on LOX IMVI melanoma, with IGROV1 ovarian and in the experiment on HL-60(TB) leukemia was over 100 µM each time.
In the case of `Cc1ccc(C(=O)/C=C/c2ccccc2O)c(C)c1`, the TGI in the experiment on SK-MEL-5 melanoma, in the experiment with SN12C renal, with SW-620 colon, in the experiment on ACHN renal, in the experiment with MOLT-4 leukemia and in the experiment with CCRF-CEM leukemia was over 100 µM throughout. For the same compound, the TGI with UACC-257 melanoma, with LOX IMVI melanoma, with IGROV1 ovarian and in the experiment with HL-60(TB) leukemia was over 100 µM in each case.
Take `O=C(CCCSc1nc(-c2ccc(Cl)cc2)cc(-c2ccc(Cl)cc2)n1)NO`: the GI50 was 1.86 µM in the experiment with SK-MEL-5 melanoma; 0.513 µM with SN12C renal; 0.838 µM in the experiment on SW-620 colon; 0.387 µM in the experiment on ACHN renal; 0.76 µM in the experiment on MOLT-4 leukemia; 0.517 µM in the experiment on CCRF-CEM leukemia. In addition, the GI50 is 2.92 µM in the experiment with UACC-257 melanoma, 0.222 µM in the experiment with LOX IMVI melanoma, 1.15 µM in the experiment with IGROV1 ovarian and 1.61 µM in the experiment with HL-60(TB) leukemia. The TGI was 4.06 µM in the experiment on SK-MEL-5 melanoma; 7.22 µM in the experiment with SN12C renal; 11.5 µM in the experiment with SW-620 colon; 10.4 µM in the experiment on ACHN renal; over 100 µM in the experiment with MOLT-4 leukemia; over 100 µM in the experiment on CCRF-CEM leukemia. Further, the TGI was determined as 18.2 µM with UACC-257 melanoma, 1.44 µM with LOX IMVI melanoma, 11.2 µM in the experiment on IGROV1 ovarian and 8 µM in the experiment on HL-60(TB) leukemia.
Regarding `COc1ccc(OC(=O)O[C@H]2[C@H](O[C@H]3[C@@H](O)COC(O[C@H]4C[C@H]5[C@@H]6CC=C7C[C@@H](O)CC[C@]7(C)[C@H]6CC[C@]5(C)[C@H]4[C@H](C)C(=O)CCC(C)C)[C@@H]3OC(C)=O)OC[C@@H](O)[C@@H]2O)cc1` (some centres undefined), the GI50 in the experiment on SK-MEL-5 melanoma is 0.0347 µM; with SN12C renal it was 11.2 µM; in the experiment with SW-620 colon, 0.0295 µM; in the experiment on ACHN renal, 0.496 µM; in the experiment with MOLT-4 leukemia, 0.0153 µM; in the experiment on CCRF-CEM leukemia it was under 0.01 µM. The GI50 with UACC-257 melanoma was 0.172 µM; with LOX IMVI melanoma, 0.0265 µM; in the experiment with IGROV1 ovarian, 0.335 µM; in the experiment on HL-60(TB) leukemia, 0.0686 µM. Further, the TGI in the experiment on SK-MEL-5 melanoma came to 0.176 µM; in the experiment on SN12C renal, 23.8 µM; with SW-620 colon, 1.13 µM; in the experiment with ACHN renal it was 18 µM; in the experiment on CCRF-CEM leukemia, 0.145 µM; with UACC-257 melanoma, 0.52 µM. The TGI was 0.177 µM with LOX IMVI melanoma, 18.2 µM with IGROV1 ovarian and 18.7 µM in the experiment on HL-60(TB) leukemia.
As for `CC[C@H](C)[C@H](NC(=O)[C@H]1CCCCN1C)C(=O)N(C)[C@H](CCc1nc(C(=O)N[C@@H](Cc2ccccc2)C[C@H](C)C(=O)OC)cs1)C(C)C`, the GI50 in the experiment with SK-MEL-5 melanoma is 0.0745 µM; in the experiment with SN12C renal, 0.773 µM; in the experiment on SW-620 colon it was 0.213 µM; in the experiment with ACHN renal, 1.75 µM; with MOLT-4 leukemia, 0.727 µM; with CCRF-CEM leukemia it was 0.265 µM. Also, the GI50 was 4.43 µM in the experiment with UACC-257 melanoma, 0.353 µM in the experiment with LOX IMVI melanoma, 0.316 µM in the experiment on IGROV1 ovarian and 0.0677 µM in the experiment with HL-60(TB) leukemia. Further, the TGI with SK-MEL-5 melanoma was 1.02 µM; in the experiment with SN12C renal, over 25 µM; with SW-620 colon, over 25 µM; in the experiment on ACHN renal, over 25 µM; in the experiment with MOLT-4 leukemia it was over 25 µM; with CCRF-CEM leukemia, over 25 µM. In addition, the TGI is over 25 µM in the experiment on UACC-257 melanoma, over 25 µM with LOX IMVI melanoma, over 25 µM with IGROV1 ovarian and 0.242 µM in the experiment on HL-60(TB) leukemia.
For the compound `COC(=O)C1=C(c2ccc3c(c2)OCO3)O[C@H](c2ccc3c(c2)OCO3)[C@H]1COC(C)=O`, the TGI is 75.2 µM in the experiment on SK-MEL-5 melanoma; over 100 µM in the experiment with SN12C renal; over 100 µM with SW-620 colon; over 100 µM in the experiment on ACHN renal; over 100 µM in the experiment on MOLT-4 leukemia; over 100 µM in the experiment on CCRF-CEM leukemia. The TGI with UACC-257 melanoma, in the experiment with LOX IMVI melanoma, in the experiment with IGROV1 ovarian and in the experiment with HL-60(TB) leukemia was over 100 µM throughout.
As for `CCCCCCCCCCCCCCCCOP(=O)(O)Oc1ccc(/C=C\c2ccc(OP(=O)(O)OCCCCCCCCCCCCCCCC)cc2)cc1`, the TGI is over 100 µM in the experiment with SK-MEL-5 melanoma; over 100 µM in the experiment on SN12C renal; over 100 µM with SW-620 colon; over 100 µM in the experiment on ACHN renal; over 100 µM in the experiment with MOLT-4 leukemia; 88.7 µM in the experiment with CCRF-CEM leukemia. Besides, the TGI with UACC-257 melanoma was over 100 µM; with LOX IMVI melanoma it was over 100 µM; with IGROV1 ovarian, over 100 µM; with HL-60(TB) leukemia it was 53.1 µM.
For the compound `COc1cc(C2c3cc4c(cc3[C@H](OCCN(C)C)[C@@H]3COC(=O)C23)OCO4)cc(OC)c1O` (some centres undefined), the TGI in the experiment on SK-MEL-5 melanoma was 1.74 µM; with SN12C renal, 0.598 µM; in the experiment on SW-620 colon it was 3.4 µM; with ACHN renal it was 0.253 µM; with MOLT-4 leukemia, 0.684 µM; with CCRF-CEM leukemia it was 1.73 µM. Also, the TGI in the experiment on UACC-257 melanoma was found to be 11.4 µM; in the experiment on LOX IMVI melanoma, 0.803 µM; in the experiment on IGROV1 ovarian, 7.5 µM; with HL-60(TB) leukemia, 0.118 µM.
